Key:
[1] = tested on: patients with chronic (primary) insomnia characterized by sleep maintenance difficulties; test: Phase 3 study EFC6220: polysomnography (PSG) recordings, 6 weeks, placebo-controlled; type: in vivo
Excerpt: (§1) The Phase 3 program of development of eplivanserin in the treatment of patients with chronic (primary) insomnia characterized by sleep maintenance difficulties consisted of 3 randomized, double-blind (DB), placebo-controlled, efficacy and safety studies designed to assess the efficacy of eplivanserin on sleep maintenance either using polysomnography (PSG) recordings (6-week study EFC6220) or patient-reported outcome (12-week studies LTE6217 and LTE6262) collected daily on sleep questionnaires. They were all double-blind (DB), randomized, placebo-controlled studies. In all studies, treatment period was preceded by a one week, placebo run-in period, designed to check selection criteria for insomnia based on patient reported sleep parameters collected on the daily sleep questionnaires (Studies LTE6217, and LTE6262) or based on PSG recordings during two screening nights in a sleep laboratory (Study EFC6220). Treatment period was followed by a placebo run-out period of 2 weeks designed to assess the effect of abrupt treatment discontinuation. Study EFC6220 was designed to measure the pharmacodynamic activity of eplivanserin on sleep maintenance using PSG recordings in a sleep laboratory. Polysomnograms were recorded in standard conditions during 8 hours in bed. Studies LTE6217 and LTE6262 measured the efficacy of eplivanserin in real life conditions of use at home by collecting daily sleep parameters reported by patients through an Interactive Voice Response System (IVRS).

[2] = tested on: patients with chronic (primary) insomnia characterized by sleep maintenance difficulties; test: Phase 3 studies LTE6217 and LTE6262: patient-reported sleep parameters, 12 weeks, placebo-controlled; type: in vivo
Excerpt: as §1

[3] = tested on: patients with mild to moderate COPD; test: COPD phase I study: overnight pulse oximetry (oxygen saturation); type: in vivo
Protocol: (§2) The primary objective of this phase I study was to evaluate the pharmacodynamic (PD) effects of eplivanserin 15 mg single dose versus placebo (P) on respiratory function measured by mean overnight oxygen saturation (SaO2) in patients with mild to moderate COPD. Recorded PD parameters were: • Pulse oximetry continuously recorded overnight, with 02 saturation in %, • Pulmonary function tests (PFTs): spirometry [measuring forced vital capacity (FVC), forced expiratory volume (FEV), peak […] flow rate (PEFR), forced […] flow (FEF)] and plethysmography [evaluating airways resistance and conductance], • Capillary blood gases, • PSG with apnea /hypopnea episodes, sleep global sleep parameters and sleep architecture, • Leeds Sleep Evaluation Questionnaire (LSEQ) and Bond & Lader VAS. Safety and pharmacokinetic parameters were also assessed.
(§3) The study was a single-centre, double-blind, randomized, 2-way crossover, placebo-controlled crossover study with 14 day washout: 15 mg single-dose of eplivanserin (E) vs. placebo (P). Included patients were displaying mild to moderate chronic obstructive pulmonary disease (COPD). The primary end-point was the pulmonary function (02 saturation over the entire night). 28 evaluable patients have been evaluated (COPD severity (FEV1) 50% mild / 50% moderate; Gender: 46.4% M, 53.6% F)

[4] = tested on: patients with mild to moderate COPD; test: COPD phase I study: spirometry; type: in vivo; conditions: Eplivanserin 15 mg single dose minus Placebo
Protocol: as §2, §3

[5] = tested on: patients with mild to moderate COPD; test: COPD phase I study: plethysmography; type: in vivo
Protocol: as §2, §3

[6] = tested on: patients with mild to moderate COPD; test: COPD phase I study: capillary blood gases; type: in vivo; conditions: 15 mg single dose
Protocol: as §2, §3

[7] = tested on: patients with mild to moderate COPD; test: COPD phase I study: PSG (apnea/hypopnea episodes, sleep parameters); type: in vivo; conditions: 15 mg single dose
Protocol: as §2, §3

[8] = tested on: patients with mild to moderate COPD; test: COPD phase I study: Leeds Sleep Evaluation Questionnaire and Bond & Lader VAS; type: in vivo; conditions: 15 mg single dose
Protocol: as §2, §3

[9] = tested on: patients with mild to moderate COPD; test: COPD phase I study: safety and tolerability; type: in vivo; conditions: for safety / tolerability: 15 mg single dose, mild or moderate COPD
Protocol: as §2, §3

[10] = cited from earlier work
[11] = 5 mg/day, after 6 and 12 weeks of treatment

CN(C)CCO/N=C(/C=C/c1ccc(O)cc1)c1ccccc1F [Eplivanserin, (1Z, 2E)-1-(2-fluorophenyl)-3-(4-hydroxyphenyl)-prop-2-en-1-one-O-(2-dimethylaminoethyl)oxime]
Stage 1 ([1]; 5 mg/day compared with placebo): decrease of Stage 1
percentage of time spent in sleep Stages 3&4 (SWS or deep sleep) ([1]; 5 mg/day compared with placebo): increased
PSG-WASO ([1]; Week 3 and Week 6, difference with placebo not statistically significant at Week 6): decreasing PSG-WASO at Week 3 and Week 6
number of brief awakenings (<1 min) ([1]; compared to placebo): decreased
sleep onset (PSG-LPS and pr-SOL) ([1]; eplivanserin 5 mg): did not affect sleep onset
PSG-NAW (LS mean) ([1]; eplivanserin 5 mg, Week 3, p<0.0001): -1.74
pr-NAW ([1]; eplivanserin 5 mg, Week 3 and Week 6): decrease of pr-NAW
PSG-NAW (LS mean) ([1]; eplivanserin 5 mg, Week 6, p<0.0001): -1.82
QoS ([1]; in vivo): improved
REM sleep ([1]; in vivo): not affected
SWS/WASO + Stage 1 index ([1]; in vivo): increase
effect on sleep maintenance (pr-WASO), onset and persistence ([2]; 5 mg/day): observed from Day 1 and persisted up to 1 year of treatment
mean pr-NAW [2, 11]: reducing
pr-TST [2, 11]: increasing
pr-WASO [2, 11]: consistently and significantly decreasing
Quality of Sleep and Refreshing Quality of Sleep ([2]; after 6 and 12 weeks of treatment): improved
"sleepiness in the morning" and "ability to concentrate" ([2]; compared with placebo, reported by insomniac patients): significantly favorable effect
sleep onset ([2]; human, in vivo): did not affect sleep onset
potential for residual effects (next-day impairment) ([2]; safety analyses): devoid of next-day impairment
SaO2 (%) during Time in bed, treatment difference LS mean ([3]; Eplivanserin 15 mg single dose minus Placebo, P-value 0.2499): -0.30%
Mean oxygen saturation over the entire night (mean ± SD) ([3]; eplivanserin 15 mg single dose, finger pulse oximetry): 93.4 % ± 1.66
SaO2 (%) during the sleep stages (stage 1, 2, SWS, REM, wake) ([3]; single dose 15 mg vs placebo): no effect
Forced vital capacity, treatment difference LS mean ([4]; P-value 0.1411): -0.12 L
Forced expiratory volume, treatment difference LS mean ([4]; P-value 0.5289): -0.03 L
Peak expiratory flow, treatment difference LS mean ([4]; P-value 0.6683): -0.05 L/S
airways resistance and conductance in each patient's subgroup (mild, moderate) ([5]; 15 mg single dose vs placebo): no difference
Airways resistance, treatment difference LS mean ([5]; Eplivanserin 15 mg single dose minus Placebo, P-value 0.4880): 0.02 KPa * s/l
Airways conductance, treatment difference LS mean ([5]; Eplivanserin 15 mg single dose minus Placebo, P-value 0.6642): -0.01 1/KPa * s
Capillary blood gases (pH, oxygen partial pressure) [6]: minimally or unaffected
AHI (apnea hypopnea index) [7]: reduction
LPS (latency to persistent sleep) [7]: no change
TST (total sleep time) [7]: increase
WASO (waketime duration after sleep onset) [7]: reduction
number of awakenings after sleep onset [7]: reduction
LSEQ and Bond & Lader VAS post-treatment scores vs baseline [8]: minimally or unaffected
safety / tolerability [9]: well tolerated
safety / tolerability ([9]; listed as eplivanserin): no safety concern
impairment of respiratory function (SaO2%, spirometry, body plethysmography) ([9]; oral single dose 15 mg, in comparison with placebo): no impairment of respiratory function was observed
half-life time ([10]; average value): 50 h
absorbed ([10]; human, in vivo): > 70%

— EP2269600A1, “Treatment of sleep disorders using eplivanserin in COPD patients” (Sanofi-Aventis, priority 2009, dated 2011)
